Experimental data reported in patent US4176189A, “Insecticidal and acaricidal hydantoin N-methylol esters” (Sumitomo Chemical Company, Limited, priority 1977, dated 1979).
Like-named read-outs stand apart in the source and are kept apart here.

How the values were obtained:
Format in all cases: in vivo
[1] = system: housefly adults (Musca domestica); test: Oil spray in (70 cm)^3 glass chamber, housefly adults, KT50 and mortality (Experimental Example 2); conditions: for mortality at 0.1 %: Musca domestica
Protocol: (§1) 0.1 Part of each of the present compounds was dissolved in kerosene and made up to 100 parts with kerosene. Thus, the oil spray of each compound was obtained. Ten northern house mosquito female adults (Culex pipiens pallens) and 10 housefly adults (Musca domestica) were liberated in a (70 cm)^3 glass chamber. 0.7 ml of the oil spray was applied and the number of knocked down insects was counted with the lapse of time. The value of KT50 was obtained from the mean knock-down ratio of three replications according to Finney's graphic method. After 10 minutes, the knocked down insects were collected and transferred to a recovery container and fed with a 5% sugar solution. After 24 hours, the dead and alive were examined.

[2] = system: northern house mosquito female adults (Culex pipiens pallens); test: Oil spray in (70 cm)^3 glass chamber, northern house mosquito female adults, KT50 and mortality (Experimental Example 2); conditions: for mortality at 0.1 %: Culex pipiens
Protocol: as §1

[3] = system: housefly female adults (Musca domestica); test: Housefly female adults on treated filter paper in polyethylene cup, mortality after 48 hours (Experimental Example 1)
Protocol: Ten percent emulsifiable concentrates were prepared as in the Preparation example 3.
At the bottom of a polyethylene cup of 5.5 cm in diameter was placed a filter paper of the same size. 0.75 Ml of a 200-fold aqueous dilute solution of each emulsifiable concentrate (corresponding to 500 ppm) was dropped on the filter paper, and 30 mg of sucrose as a food was uniformly placed. Ten housefly female adults (Musca domestica) were liberated in the cup which was then covered with a lid. After 48 hours, the dead and alive were examined to obtain mortality (4 replications).

[4] = system: northern house mosquito female adults (Culex pipiens pallens); test: Oil spray in (70 cm)^3 glass chamber, knock down of mosquitoes at 10 minutes (Experimental Example 3); conditions: oil sprays of Preparation example 1 (0.2 part in 100), 0.7 ml, 10 minutes after spraying, read-out: KD%
Description: Ten northern house mosquito female adults (Culex pipiens pallens) were liberated in a (70 cm)^3 glass chamber.

[5] = system: adult German cockroaches (Blattella germanica); test: Flushing out of German cockroaches from shelter (Experimental Example 8); conditions: 0.7 ml of 0.1% oil spray
Protocol: Ten adult German cockroaches (Blattella germanica) were liberated in a plywood-made trigonal prism like shelter with diet and water. The shelter containing cockroaches was made stand opening upward in a glass chamber (70 cm)^3, and 0.7 ml of 0.1% oil spray of each compound was applied to the chamber. The number of flushed out insects was counted with the lapse of time.

[6] = housefly adult, 0.1% oil spray, 0.7 ml
[7] = northern house mosquito female adult, 0.1% oil spray, 0.7 ml
[8] = 200-fold aqueous dilution of emulsifiable concentrate (500 ppm), 48 hours, housefly female adults, read-out: Mortality

Row | SMILES | mortality at 0.1 % ([1]; 24 h) [%] | KT50 [1, 6] [s] | mortality at 0.1 % ([2]; 24 h) [%] | KT50 [2, 7] [s] | mortality at 500 µg/mL ([3]; 48 h) [%] | pest or weed control at 0.2 % [4] [%] | further results
1 | C#CCN1CC(=O)N(COC(=O)[C@@H]2[C@H](C=C(Br)Br)C2(C)C)C1=O [Present compound (11) (d-cis isomer), 1-Propargyl-3-hydantoinylmethyl 2,2-dimethyl-3-(2,2-dibromovinyl)cyclopropanecarboxylate] | 10 | 96 | 95 | 38 | 100 |  | 
2 | C#CCN1CC(=O)N(COC(=O)C(c2cccc(Cl)c2)C(C)C)C1=O (stereo not drawn) [Present compound (14), 1-Propargyl-3-hydantoinylmethyl α-(3-chlorophenyl)isovalerate] |  |  |  |  |  | 85 | mortality at 500 µg/mL [3, 8]: 100%
3 | C#CCN1C(=O)N(COC(=O)C2C(C=C(C)C)C2(C)C)C(=O)C1C (stereo not drawn) [Present compound (23), 1-Propargyl-5-methyl-3-hydantoinylmethyl chrysanthemate] |  |  |  |  |  | 100 | 
4 | C#CCN1CC(=O)N(COC(=O)[C@@H]2[C@@H](C=C(C)C)C2(C)C)C1=O [Present compound (7), 1-Propargyl-3-hydantoinylmethyl chrysanthemate] | 10 | 72 | 100 | 30 | 100 |  | 
5 | C#CCN1CC(=O)N(COC(=O)[C@@H]2[C@@H](C=C(C)C=C)C2(C)C)C1=O (relative stereo) [Present compound (10), 1-Propargyl-3-hydantoinylmethyl 2,2-dimethyl-3-(2-methylbutadienyl)cyclopropanecarboxylate] |  |  |  |  | 95 | 90 | 
6 | C#CCN1C(=O)CN(COC(=O)C2C(C=C(Cl)Cl)C2(C)C)C1=O (stereo not drawn) [Present compound (4), 3-Propargyl-1-hydantoinylmethyl 2,2-dimethyl-3-(2,2-dichlorovinyl)cyclopropanecarboxylate] | 30 | 280 | 85 | 50 | 100 |  | 
7 | C#CCN1CC(=O)N(COC(=O)C(c2ccc(C)cc2)C(C)C)C1=O (stereo not drawn) [Present compound (15), 1-Propargyl-3-hydantoinylmethyl α-(4-methylphenyl)isovalerate] |  |  |  |  |  | 90 | mortality at 500 µg/mL [3, 8]: 90%
8 | C=CCN1CC(=O)N(COC(=O)C(c2ccc(Cl)cc2)C(C)C)C1=O (stereo not drawn) [Present compound (20), 1-Allyl-3-hydantoinylmethyl α-(4-chlorophenyl)isovalerate] |  |  |  |  |  | 85 | 
9 | CCCN1CC(=O)N(COC(=O)C2C(C=C(Cl)Cl)C2(C)C)C1=O (stereo not drawn) [Present compound (3), 1-Propyl-3-hydantoinylmethyl 2,2-dimethyl-3-(2,2-dichlorovinyl)cyclopropanecarboxylate] |  |  |  |  |  | 100 | Flushing out ([5]; 38"): 30%; Flushing out ([5]; 75"): 45%; Flushing out ([5]; 150"): 45%; Flushing out ([5]; 300"): 50%; Flushing out ([5]; 600"): 65%
10 | C#CCN1CC(=O)N(COC(=O)[C@@H]2[C@@H](C=C(Br)Br)C2(C)C)C1=O [Present compound (11) (d-trans isomer), 1-Propargyl-3-hydantoinylmethyl 2,2-dimethyl-3-(2,2-dibromovinyl)cyclopropanecarboxylate] | 30 | 78 | 85 | 35 | 100 |  | 
11 | C=CCN1CC(=O)N(COC(=O)C(c2ccc(Br)cc2)C(C)C)C1=O (stereo not drawn) [Present compound (18), 1-Allyl-3-hydantoinylmethyl α-(4-bromophenyl)isovalerate] |  |  |  |  |  | 90 | mortality at 500 µg/mL [3, 8]: 100%
12 | C#CCN1CC(=O)N(COC(=O)[C@@H]2[C@@H](C=C(Cl)Cl)C2(C)C)C1=O [Present compound (1) (d-trans isomer), 1-Propargyl-3-hydantoinylmethyl 2,2-dimethyl-3-(2,2-dichlorovinyl)cyclopropanecarboxylate] | 80 | 60 | 100 | 30 | 100 |  | 
13 | C#CCN1C(=O)N(COC(=O)C2C(C=C(Cl)Cl)C2(C)C)C(=O)C1CC (stereo not drawn) [Present compound (24), 1-Propargyl-5-ethyl-3-hydantoinylmethyl 2,2-dimethyl-3-(2,2-dichlorovinyl)cyclopropanecarboxylate] |  |  |  |  |  | 85 | 
14 | C#CCN1CC(=O)N(COC(=O)C(c2ccc(OC)cc2)C(C)C)C1=O (stereo not drawn) [Present compound (17), 1-Propargyl-3-hydantoinylmethyl α-(4-methoxyphenyl)isovalerate] |  | 280 |  | 140 |  |  | mortality at 0.1 % ([1]; housefly adult, 0.1% oil spray, 0.7 ml, after 24 hours, read-out: Mortality): 35%; mortality at 0.1 % ([2]; northern house mosquito female adult, 0.1% oil spray, 0.7 ml, after 24 hours, read-out: Mortality): 75%; mortality at 500 µg/mL [3, 8]: 95%
15 | C#CCN1CC(=O)N(COC(=O)C(c2ccc(Cl)c(Cl)c2)C(C)C)C1=O (stereo not drawn) [Present compound (19), 1-Propargyl-3-hydantoinylmethyl α-(3,4-dichlorophenyl)isovalerate] |  |  |  |  |  | 85 | 
16 | CC(C)=CC1C(C(=O)OCN2C(=O)C3=C(CCCC3)C2=O)C1(C)C (stereo not drawn) [Tetramethrin, N-(chrysanthemoxymethyl)-3,4,5,6-tetrahydrophthalimide, reference compound] | 20 | 372 | 45 | 162 |  |  | 
17 | CNC(=O)Oc1ccccc1OC(C)C [Propoxur, reference compound] |  |  |  |  |  |  | Flushing out ([5]; 38"): 0%; Flushing out ([5]; 75"): 0%; Flushing out ([5]; 150"): 0%; Flushing out ([5]; 300"): 0%; Flushing out ([5]; 600"): 5%
18 | C=CCN1C(=O)CN(COC(=O)C2C(C=C(Cl)Cl)C2(C)C)C1=O (stereo not drawn) [Present compound (5), 3-Allyl-1-hydantoinylmethyl 2,2-dimethyl-3-(2,2-dichlorovinyl)-cyclopropanecarboxylate] |  |  |  |  | 100 | 100 | 
19 | C#CCN1CC(=O)N(COC(=O)[C@@H]2[C@@H](C=NOC)C2(C)C)C1=O [Present compound (12), 1-Propargyl-3-hydantoinylmethyl 2,2-dimethyl-3-methoxyiminomethylcyclopropanecarboxylate] |  |  |  |  |  | 100 | 
20 | CC(C)=CC1C(C(=O)OCc2coc(Cc3ccccc3)c2)C1(C)C (stereo not drawn) [Resmethrin, 5-benzyl-3-furylmethyl chrysanthemate, reference compound] |  |  |  |  |  | 50 | 
21 | C#CCN1CC(=O)N(COC(=O)C2C(C=C(Cl)Cl)C2(C)C)C1=O (racemic) [Present compound (1) (dl-cis,trans isomer), 1-Propargyl-3-hydantoinylmethyl 2,2-dimethyl-3-(2,2-dichlorovinyl)cyclopropanecarboxylate] | 60 | 96 | 90 | 69 | 100 |  | Flushing out ([5]; 38"): 35%; Flushing out ([5]; 75"): 65%; Flushing out ([5]; 150"): 75%; Flushing out ([5]; 300"): 85%; Flushing out ([5]; 600"): 95%
22 | C#CCN1C(=O)N(COC(=O)C2C(C=C(Cl)Cl)C2(C)C)C(=O)C1C (stereo not drawn) [Present compound (22), 1-Propargyl-5-methyl-3-hydantoinylmethyl 2,2-dimethyl-3-(2,2-dichlorovinyl)cyclopropanecarboxylate] | 20 | 114 | 85 | 75 |  |  | 
